In patent publication US11474105B2, “Methods and compositions for SIRT1 expression as a marker for endometriosis and subfertility” (The University of North Carolina at Chapel Hill, priority 2016, dated 2022):

Test system: BCL6 positive individuals
Test: IVF ovum transfer or frozen embryo transfer after pretreatment
Assay type: in vivo
Details: pretreatment for two months prior to transfer, compared to no treatment, p<0.0001
Experimental: In vitro fertilized (IVF) ovum transfer or frozen embryo transfer was carried out in BCL6 positive individuals. There were three treatment groups: no treatment prior to transfer, laparoscopy with treatment of endometriosis prior to transfer and GnRH agonist suppression (Lupron) pretreatment for two months prior to transfer.

CCNC(=O)[C@@H]1CCCN1C(=O)[C@H](CCCNC(=N)N)NC(=O)[C@H](CC(C)C)NC(=O)[C@@H](CC(C)C)NC(=O)[C@H](Cc1ccc(O)cc1)NC(=O)[C@H](CO)NC(=O)[C@H](Cc1c[nH]c2ccccc12)NC(=O)[C@H](Cc1c[nH]cn1)NC(=O)[C@@H]1CCC(=O)N1 [Lupron, leuprolide acetate]
time to pregnancy: significantly better
transplantation rate: significantly better
